Data set [1] concerns HIV-1 wild-type reference strain NL4-3. In words: HIV-1 phenotypic assay, MT-2 cells then TZM-bl cells, luciferase. The format is cell-based. The note with it: Human immunodeficiency virus 1, NL43.
The nature of data set [2]: Cytotoxicity, MTT method in HuH7.5 cells. It counts as cell-based. The note with it: human, non-infected, read-out: HCV CC50. As to the method:
After 4 h of incubation at 37° C. in a humidified atmosphere with 5% CO2, the amount of formazan produced was quantified spectrophotometrically at 550/620 nm (C. Pannecouque et al, Nature protocol 2008; 3 (3): 427-434). […] These assays were done in duplicate.
Background: Tetrazolium assays rely on reduction of a dye to a coloured formazan, in cell work by metabolically active cells.

The nature of data set [3]: Cytotoxicity in the JEV cell culture system. The note with it: hamster.
The subject of the next data set is JEV strain (NJ2008). The experiment in a line: JEV infectious cell culture system, plaque formation assay in BHK-21 cells. The note with it: Japanese encephalitis virus, BHK-21, read-out: JEV EC50.
A further data set addresses DDX3 Helicase (Homo sapiens, UniProt O00571). The note with it: read-out: ID50 (μM) against DDX3 Helicase; n.a. = compound not active.
The target in another data set is NS3 (HCV) (Hepacivirus hominis (Hepatitis C virus), UniProt P26663). In words: Selectivity of 20a: NS3 (HCV). The format is biochemical.
The next data set addresses T1, DDX1 (Homo sapiens, UniProt Q92499).
T1 sequence (Q92499 1-740): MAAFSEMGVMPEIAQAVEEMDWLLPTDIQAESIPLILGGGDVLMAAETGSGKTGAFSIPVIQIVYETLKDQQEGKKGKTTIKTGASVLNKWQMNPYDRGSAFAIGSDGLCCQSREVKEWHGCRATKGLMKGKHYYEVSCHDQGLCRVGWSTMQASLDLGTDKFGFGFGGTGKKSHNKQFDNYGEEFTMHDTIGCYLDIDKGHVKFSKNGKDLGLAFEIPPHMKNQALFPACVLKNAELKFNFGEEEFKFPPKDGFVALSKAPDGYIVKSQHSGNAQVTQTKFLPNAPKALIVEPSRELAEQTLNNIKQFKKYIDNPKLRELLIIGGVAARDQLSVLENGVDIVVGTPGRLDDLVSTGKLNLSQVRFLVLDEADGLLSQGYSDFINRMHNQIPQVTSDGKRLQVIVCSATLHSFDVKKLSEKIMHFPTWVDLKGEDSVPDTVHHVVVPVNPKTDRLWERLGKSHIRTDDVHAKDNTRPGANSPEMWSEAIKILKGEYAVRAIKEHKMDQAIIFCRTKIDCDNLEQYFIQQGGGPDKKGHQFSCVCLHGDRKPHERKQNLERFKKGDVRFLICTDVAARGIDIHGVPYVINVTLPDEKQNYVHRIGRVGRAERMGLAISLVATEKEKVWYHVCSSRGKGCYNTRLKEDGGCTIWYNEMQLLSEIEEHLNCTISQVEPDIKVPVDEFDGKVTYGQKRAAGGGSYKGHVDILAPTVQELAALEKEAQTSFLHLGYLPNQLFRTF
In words: Selectivity of 20a: DDX1. It counts as biochemical. The note with it: >200 = less than 20% of inhibition at 200 μM, the highest concentration tested.

The subject of data set [4] is Hepatitis C Virus (HCV) replicon system. The experiment in a line: HCV replicon system, luciferase method in LucUbiNeo-ET cells. (A replicon is a self-replicating genome or part of one, used to study replication in cells.)

Where only a bound is given, the exact number is not on record here.

Sequence of DDX3 Helicase (O00571 whole entry): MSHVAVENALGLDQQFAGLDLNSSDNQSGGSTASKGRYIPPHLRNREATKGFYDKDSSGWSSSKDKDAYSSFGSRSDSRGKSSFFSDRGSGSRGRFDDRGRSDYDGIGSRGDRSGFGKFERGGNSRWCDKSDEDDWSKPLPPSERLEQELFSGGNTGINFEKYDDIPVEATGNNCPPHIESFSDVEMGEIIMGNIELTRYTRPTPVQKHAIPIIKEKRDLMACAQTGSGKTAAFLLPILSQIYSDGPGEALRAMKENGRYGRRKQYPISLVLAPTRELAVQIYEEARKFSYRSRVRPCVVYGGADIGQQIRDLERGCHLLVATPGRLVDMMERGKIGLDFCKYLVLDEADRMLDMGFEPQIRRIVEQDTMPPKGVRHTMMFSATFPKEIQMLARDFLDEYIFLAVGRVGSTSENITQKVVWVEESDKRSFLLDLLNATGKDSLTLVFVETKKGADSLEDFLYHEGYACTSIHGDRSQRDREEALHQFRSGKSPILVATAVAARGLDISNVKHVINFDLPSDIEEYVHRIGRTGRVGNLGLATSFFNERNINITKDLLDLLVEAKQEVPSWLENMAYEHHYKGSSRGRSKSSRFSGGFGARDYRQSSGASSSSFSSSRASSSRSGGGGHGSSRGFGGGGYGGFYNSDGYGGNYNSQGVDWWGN
Sequence of NS3 (HCV) (P26663 1027-1657): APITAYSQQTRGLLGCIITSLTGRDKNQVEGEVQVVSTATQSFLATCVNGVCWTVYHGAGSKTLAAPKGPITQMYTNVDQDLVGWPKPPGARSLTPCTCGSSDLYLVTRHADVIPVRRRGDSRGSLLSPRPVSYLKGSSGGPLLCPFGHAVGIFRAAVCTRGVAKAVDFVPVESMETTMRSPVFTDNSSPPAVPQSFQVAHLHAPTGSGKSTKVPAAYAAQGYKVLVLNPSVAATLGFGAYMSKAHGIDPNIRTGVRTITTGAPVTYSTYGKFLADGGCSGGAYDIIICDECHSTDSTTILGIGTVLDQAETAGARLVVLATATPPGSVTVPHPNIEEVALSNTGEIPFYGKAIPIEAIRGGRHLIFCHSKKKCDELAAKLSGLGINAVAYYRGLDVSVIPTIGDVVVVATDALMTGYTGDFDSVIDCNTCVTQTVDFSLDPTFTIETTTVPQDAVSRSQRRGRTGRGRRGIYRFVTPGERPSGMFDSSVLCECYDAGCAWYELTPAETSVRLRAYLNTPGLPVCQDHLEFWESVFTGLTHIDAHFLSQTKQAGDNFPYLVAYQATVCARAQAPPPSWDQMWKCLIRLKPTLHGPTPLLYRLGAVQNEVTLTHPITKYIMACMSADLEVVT

Consider `CCCCc1cn(-c2ccc(NC(=O)Nc3ccccc3C)cc2)nn1` [Compound 20a, 1-(4-(4-butyl-1H-1,2,3-triazol-1-yl)phenyl)-3-o-tolylurea], for which the EC50 (commonly the concentration needed to bring the measured effect to its halfway point) in data set [1] (first cycle in MT-2 cells, additional round in TZM-bl cells) stood at 1.1 µM; in the data set on JEV strain (NJ2008), 20 µM; in data set [4] (Hepatitis C virus, 48 h, read-out: EC50 (μM) HCV replicon system) it was 0.97 µM. Further, the IC50 in data set [1] (strain 114, NL4-3 wild type, read-out: IC50 [95% CI] (μM), HIV-1 strain 114) was 1.11 µM; on DDX3 Helicase, 0.3 µM; against NS3 (HCV) it was 16.8 µM; on DDX1, above 200 µM. Moreover, the CC50 (commonly the concentration that lowers cell viability or growth by half) was 10.1 µM in data set [2] and above 50 µM in data set [3]. Further, the “activity against HCV, in words” value in data set [4] is “best activity”.

Values taken from patent US10941121B2 (AZIENDA OSPEDALIERA UNIVERSITARIA SENESE, priority 2015, dated 2021).
